Results published in US9982017B2, “Synthetic apelin mimetics for the treatment of heart failure” (priority 2012, dated 2018).
Where a SMILES comes first, the peptide text is derived from it. Bridges are numbered along the chain shown (N, C = ends). [ ]: non-standard residue; d: D form. pGlu = O=C1CC[C@@H](C(=O)O)N1; Nle = CCCC[C@H](N)C(=O)O

assay: in vitro; settings: rat, not told, Surrogate activity-based Plasma stability t½

half-life [h] | SMILES
> 16.7 | CCCC[C@@H]1NC(=O)[C@@H]2CCCN2C(=O)CNC(=O)[C@H](CCCCN)NC(=O)[C@H](Cc2c[nH]cn2)NC(=O)[C@@H](NC(=O)[C@H](CC(C)C)NC(=O)[C@H](CCCNC(=N)N)NC(=O)[C@@H]2CCCN2C(=O)[C@H](Cc2ccccc2)NC(=O)[C@@H]2CCC(=O)N2)CSSC[C@@H](C(=O)N[C@@H](Cc2ccccc2)C(=O)O)NC1=O [Example 31, pE-F-P-R-L-C-H-K-G-P-Nle-C-F-OH] ([pGlu]FPRLCHKGP[Nle]CF-OH; disulfide 6-12)
> 16.7 | CCCC[C@@H]1NC(=O)[C@@H]2CCCN2C(=O)CNC(=O)[C@H](CCCCN)NC(=O)[C@H](Cc2c[nH]cn2)NC(=O)[C@@H](NC(=O)[C@H](CC(C)C)NC(=O)[C@H](CCCNC(=N)N)NC(=O)[C@@H]2CCCN2C(=O)[C@H](CCC(=O)O)NC(=O)[C@@H]2CCC(=O)N2)CSSC[C@@H](C(=O)N[C@@H](Cc2ccccc2)C(=O)O)NC1=O [Example 32, pE-E-P-R-L-C-H-K-G-P-Nle-C-F-OH] ([pGlu]EPRLCHKGP[Nle]CF-OH; disulfide 6-12)
> 16.7 | CCCC[C@@H]1NC(=O)[C@@H]2CCCN2C(=O)CNC(=O)[C@H](CCCCN)NC(=O)[C@H](Cc2c[nH]cn2)NC(=O)[C@@H](NC(=O)[C@H](CC(C)C)NC(=O)[C@H](CCCNC(=N)N)NC(=O)[C@H]2CCCN2C(=O)[C@H](CCCNC(=N)N)NC(=O)[C@@H]2CCC(=O)N2)CSSC[C@@H](C(=O)N[C@@H](Cc2ccccc2)C(=O)O)NC1=O [Example 33, pE-R-p-R-L-C-H-K-G-P-Nle-C-F-OH] ([pGlu]R[dP]RLCHKGP[Nle]CF-OH; disulfide 6-12)
8.42 | CCCC[C@@H]1NC(=O)[C@@H]2CCCN2C(=O)CNC(=O)[C@H](CCCCN)NC(=O)[C@H](Cc2c[nH]cn2)NC(=O)[C@@H](NC(=O)[C@H](CC(C)C)NC(=O)[C@H](CCCNC(=N)N)NC(=O)[C@H](CCCCN)NC(=O)[C@H](CCCNC(=N)N)NC(=O)[C@@H]2CCC(=O)N2)CSSC[C@@H](C(=O)N[C@@H](Cc2ccccc2)C(=O)O)NC1=O [Example 34, pE-R-K-R-L-C-H-K-G-P-Nle-C-F-OH] ([pGlu]RKRLCHKGP[Nle]CF-OH; disulfide 6-12)
> 16.7 | CCCC[C@@H]1NC(=O)[C@@H]2CCCN2C(=O)CNC(=O)[C@H](CCCCN)NC(=O)[C@H](Cc2c[nH]cn2)NC(=O)[C@@H](NC(=O)[C@H](CC(C)C)NC(=O)[C@H](CCCNC(=N)N)NC(=O)[C@H](CC(=O)O)NC(=O)[C@H](CCCNC(=N)N)NC(=O)[C@@H]2CCC(=O)N2)CSSC[C@@H](C(=O)N[C@@H](Cc2ccccc2)C(=O)O)NC1=O [Example 35, pE-R-D-R-L-C-H-K-G-P-Nle-C-F-OH] ([pGlu]RDRLCHKGP[Nle]CF-OH; disulfide 6-12)
> 16.7 | CCCC[C@@H]1NC(=O)[C@@H]2CCCN2C(=O)CNC(=O)[C@H](CCCCN)NC(=O)[C@H](Cc2c[nH]cn2)NC(=O)[C@@H](NC(=O)[C@H](CC(C)C)NC(=O)[C@H](Cc2ccccc2)NC(=O)[C@@H]2CCCN2C(=O)[C@H](CCCNC(=N)N)NC(=O)[C@@H]2CCC(=O)N2)CSSC[C@@H](C(=O)N[C@@H](Cc2ccccc2)C(=O)O)NC1=O [Example 36, pE-R-P-F-L-C-H-K-G-P-Nle-C-F-OH] ([pGlu]RPFLCHKGP[Nle]CF-OH; disulfide 6-12)
2.74 | CCCC[C@@H]1NC(=O)[C@@H]2CCCN2C(=O)CNC(=O)[C@H](CCCCN)NC(=O)[C@H](Cc2c[nH]cn2)NC(=O)[C@@H](NC(=O)[C@H](CCCCN)NC(=O)[C@H](CCCNC(=N)N)NC(=O)[C@@H]2CCCN2C(=O)[C@H](CCCNC(=N)N)NC(=O)[C@@H]2CCC(=O)N2)CSSC[C@@H](C(=O)N[C@@H](Cc2ccccc2)C(=O)O)NC1=O [Example 37, pE-R-P-R-K-C-H-K-G-P-Nle-C-F-OH] ([pGlu]RPRKCHKGP[Nle]CF-OH; disulfide 6-12)
